For 12 molecules, EC50 results are on record in US20250066338A1, “CERTAIN 3-AZABICYCLO[3.1.0]HEXANES AS GLP-1 RECEPTOR MODULATORS” (AstraZeneca AB, priority 2021, published 2025).

Experiment [1] concerns the target GLP-1R in EndoC-βH1 cells (Homo sapiens (Human), UniProt P43220). Kind of experiment: EndoC cAMP Accumulation Assay. The class given is cell-based. Conditions: EndoC-βH1 human pancreatic beta cell line; HTRF cAMP accumulation. The source says:
EndoC cAMP Accumulation Assay
A HTRF cAMP assay (cAMP Gs dynamic kit; CisoBio Cat #62AM4PEJ) was used to identify agonists of GLP-1R in a pancreatic insulinoma cell line (EndoC-βH1). […] EndoC-βH1 cells have detectable GLP-1R messenger ribonucleic acid (mRNA) as detected by quantitative polymerase chain reaction (qPCR). […] The EndoC-βH1 cell line is a valid model of human beta cells and applicable for screenings to identify novel drug target candidates (Mol. Metab., 2018, 8, 144-157). CisBio HTRF cAMP kits are based on a competitive immunoassay using cryptate-labelled anti-cAMP antibody and d2-labeled cAMP. The detection kit is intended for the direct quantitative determination of cAMP. The specific signal (i.e. energy transfer) is inversely proportional to the concentration of cAMP in the standard or sample. Test compounds (10 mM in DMSO) were diluted into assay buffer (HBSS (Sigma #H8264) supplemented with 25 mM HEPES (Gibco #15630, pH 7.4), 0.1% BSA (Sigma #A3059) and 0.5 mM IBMX (Sigma #17018) included fresh on the day of the assay) into 96 well U-bottom plates (Greiner #650201). Diluted compounds were transferred to ECHO source polypropylene plates (Labcyte #P-05525) and dose response curves were dispensed acoustically using ECHO 550 into black shallow-well u-bottom 384-well HTRF Assay Plates (Corning 4514).
Cryovials of EndoC-H1 (supplied at 1×10e^7 cells/vial) were used directly for screening. The cryovials and were removed from N2 (1) and thawed rapidly in a 37° C. water bath. The cells were resuspended in assay buffer and centrifuged at 300 g for 5 min. Cells were resuspended in assay buffer at the appropriate concentration, typically at 12e5 cells per mL (3000 cells per well, dependent on cell batch) and 2.5 μL diluted cells were added to all wells of destination plate by Multidrop combi reagent dispenser (Thermofisher). The plates were incubated at rt for 30 min. The assay was stopped by adding 2.5 μL anti-cAMP cryptate solution to all wells and 2.5 μL cAMP-d2 solution (both diluted 1:20 in lysis buffer) to columns 1-22 by Combi drop. A volume of 2.5 μL cAMP-d2 solution was added to wells E23 to P24 and 2.5 μL lysis buffer added to wells A23 to D24 by multichannel pipette. The plates were incubated at rt for 1 h and read on an Envision plate reader using excitation wavelength of 320 nm and emission of […] and 660 nm.
Raw data from Envision is converted to % DeltaF according to the manufacturer's instructions. Dose response curves are analysed via 4-Parameter Logistical Analysis and assay plate Z′ values obtained. Samples are graphed as percentage (%) activation plots compared to GIP (1-42, Bachem H-5645) with assay window defined by negative control as basal cell cAMP levels and positive control are defined by maximum GIP (82.5 nM) signal. GLP1 (7-36 amide, Bachem H-6795) dose response curve was included on all plates.
In general terms: Time-resolved FRET reads energy transfer from a long-lived donor to a nearby acceptor.

Another experiment has as its target human GLP-1R receptor (Homo sapiens (Human), UniProt P43220, L260F). Kind of experiment: CHOK1 GLP-1R cAMP Assay. The class given is cell-based. Conditions: CHO-K1 cell line stably expressing human GLP-1R; HTRF cAMP; agonist activity. On the procedure: A cell line stably expressing the human GLP-1R receptor (NM 002062.5, including the naturally-occurring variant Leu260Phe) in a CHO-K1 (ATCC® CCL-61™) was used for assay.
GLP-1 receptor mediated agonist activity was determined in a cell based assay measuring cyclic adenosine monophosphate (cAMP) levels in cells using Homogeneous Time-Resolved Fluorescence (HTRF) cAMP detection kit (CisBio catalog #62AM4PEC, cAMP Gs Dynamic range kit). The cAMP detection method is based on a competitive immunoassay, in which cAMP produced by the cells and cAMP labeled with the dye d2 compete for binding to a Europium-Cryptate-labeled anti-cAMP antibody. The specific HTRF signal is inversely proportional to the concentration of cAMP.
Compounds were added to individual well in 384 well-assay plates (Greiner #784076) using an Echo (LabCyte) dispenser from 10 mM stocks. Varying concentration of compounds were added to wells, and DMSO was used to normalize each well to a volume of 100 nL. A dose response curve of GLP1(7-36)NH2 (Bachem H-6795) was included in each run. 5 μL of cAMP concentration response standards are applied in specified wells in the assay plates. Cryo-preserved cells are thawed and resuspended in assay buffer pre-heated to 37° C. (20 mM HEPES pH 7.4, lx Hank's Balanced Salt Solution (HBSS, Life Technologies #14065) supplemented with 0.1% (w/v) bovine serum albumin (Sigma, A-7030). Cells were centrifuged at 250*g for 5 min at rt, and resuspended in room tempered assay buffer to a final density of 0.16*10^6 cell/mL, to deliver 800 cells/well. 5 μL of assay buffer with 1 mM 3-isobutyl-1-methylxanthin (IBMX; Sigma cat I-7018) was dispensed per well in assay plates using a multidrop combi (Thermo Scientific) subsequently 5 μL of cell suspension was distributed to relevant wells in the assay using a multidrop dispenser. Assay plates were incubated 20 min at rt.
Detection reagents, Europium-Cryptate-labeled anti-cAMP antibody and cAMP labeled with the dye d2, are diluted in lysis buffer, provided by the manufacturer. 5 μL of each detection reagent is supplemented to each assay well using a multidrop dispenser. Assay plates are incubated in the dark for at least one h. The HTRF signal is measured using the HTRF module (excitation: 337 nm, emission A: 665 nm and emission B: 620 nm) in Pherastar FSX (BMG Labtech).
Raw data were converted to pM cAMP using the cAMP standard curve included in each run. Converted data were further analyzed in Genedata Screener (Genedata) and EC50 determinations were made from agonist dose-response curves analyzed with a curve fitting program using a 4-parameter logistic dose response equation (Equation y=A+((B−A)/1+((C/x)^D))) where A is no stimulation, B is full stimulation, C is the EC50 and D is the Hill slope). The percent effect was determined relative to a saturating concentration of a full GLP-1R agonist (GLP1(7-36)NH2 has 100% effect in this assay setup).

The term EC50 denotes the concentration at which the effect is half-maximal.

Sequence of GLP-1R in EndoC-βH1 cells (P43220 24-463): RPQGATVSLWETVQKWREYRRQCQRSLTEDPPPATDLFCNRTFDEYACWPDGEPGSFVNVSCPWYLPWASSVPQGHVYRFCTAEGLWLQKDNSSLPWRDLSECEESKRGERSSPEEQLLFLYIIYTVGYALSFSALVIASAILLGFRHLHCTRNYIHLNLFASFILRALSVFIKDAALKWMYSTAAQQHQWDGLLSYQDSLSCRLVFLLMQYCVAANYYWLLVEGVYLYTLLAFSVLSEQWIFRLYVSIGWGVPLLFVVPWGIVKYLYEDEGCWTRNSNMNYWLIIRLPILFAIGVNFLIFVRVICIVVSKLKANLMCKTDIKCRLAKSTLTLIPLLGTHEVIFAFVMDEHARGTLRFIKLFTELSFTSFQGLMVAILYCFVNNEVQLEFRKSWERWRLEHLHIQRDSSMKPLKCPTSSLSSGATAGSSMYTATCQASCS
Sequence of human GLP-1R receptor (P43220 24-463 L260F): as the sequence (P43220 24-463) above, with L237F counted along it

For `N#Cc1ccc(COc2cccc([C@H]3[C@@H]4CN(Cc5nc6c(Cl)cc(C(=O)O)cc6n5C[C@@H]5CCO5)C[C@@H]43)n2)c(F)c1` [Example 8, 4-Chloro-2-(((1R,5S,6S)-6-(6-((4-cyano-2-fluorobenzyl)oxy)pyridin-2-yl)-3-azabicyclo[3.1.0]hexan-3-yl)methyl)-1-(((S)-oxetan-2-yl)methyl)-1H-benzo[d]imidazole-6-carboxylic acid], the EC50 in experiment [1] turned out to be 10 nM; at human GLP-1R receptor it was 20 nM.
Consider `CCn1cncc1Cn1c(CN2C[C@@H]3[C@H](C2)[C@H]3c2cccc(OCc3ccc(C#N)cc3F)n2)nc2ccc(C(=O)O)cc21` [Example 10, 2-(((1R,5S,6r)-6-(6-((4-Cyano-2-fluorobenzyl)oxy)pyridin-2-yl)-3-azabicyclo[3.1.0]hexan-3-yl)methyl)-1-((1-ethyl-1H-imidazol-5-yl)methyl)-1H-benzo[d]imidazole-6-carboxylic acid], for which the EC50 in experiment [1] is 88 nM; at human GLP-1R receptor it was 42 nM.
Take `N#Cc1ccc(COc2cccc([C@H]3[C@@H]4CN(Cc5nc6ccc(C(=O)O)cc6n5C[C@@H]5CCCO5)C[C@@H]43)n2)c(F)c1` [Example 6, 2-(((1R,5S,6S)-6-(6-((4-Cyano-2-fluorobenzyl)oxy)pyridin-2-yl)-3-azabicyclo[3.1.0]hexan-3-yl)methyl)-1-(((S)-tetrahydrofuran-2-yl)methyl)-1H-benzo[d]imidazole-6-carboxylic acid]: the EC50 in experiment [1] was 290 nM.
Regarding “2-(((1R,5S,6S)-6-(6-((4-Cyano-2-fluorobenzyl)oxy)pyridin-2-yl)-3-azabicyclo[3.1.0]hexan-3-yl)methyl)-4-methoxy-1-(((S)-oxetan-2-yl)methyl)-1H-benzo[d]imidazole-6-carboxylic acid [Example 5]”, the EC50 in experiment [1] was determined as 200 nM; at human GLP-1R receptor, 240 nM.
The like results for `CCn1cncc1Cn1c(CN2C[C@@H]3[C@H](C2)[C@H]3c2nc(OCc3ccc(C#N)cc3F)ccc2F)nc2c(OC)cc(C(=O)O)cc21` [Example 7, 2-(((1R,5S,6r)-6-(6-((4-Cyano-2-fluorobenzyl)oxy)-3-fluoropyridin-2-yl)-3-azabicyclo[3.1.0]hexan-3-yl)methyl)-1-((1-ethyl-1H-imidazol-5-yl)methyl)-4-methoxy-1H-benzo[d]imidazole-6-carboxylic acid] were, in that order, 38 nM and 17 nM.
The like results for `CCn1cncc1Cn1c(CN2C[C@@H]3[C@H](C2)[C@H]3c2cccc(OCc3ccc(Cl)cc3F)n2)nc2ccc(C(=O)O)cc21` [Example 12, 2-(((1R,5S,6r)-6-(6-((4-Chloro-2-fluorobenzyl)oxy)pyridin-2-yl)-3-azabicyclo[3.1.0]hexan-3-yl)methyl)-1-((1-ethyl-1H-imidazol-5-yl)methyl)-1H-benzo[d]imidazole-6-carboxylic acid] were, in that order, 150 nM and 97 nM.
With `N#Cc1ccc(COc2ccc(F)c([C@H]3[C@@H]4CN(Cc5nc6ccc(C(=O)O)cc6n5C[C@@H]5CCO5)C[C@@H]43)n2)c(F)c1` [Example 2, 2-(((1R,5S,6S)-6-(6-((4-Cyano-2-fluorobenzyl)oxy)-3-fluoropyridin-2-yl)-3-azabicyclo[3.1.0]hexan-3-yl)methyl)-1-(((S)-oxetan-2-yl)methyl)-1H-benzo[d]imidazole-6-carboxylic acid], the EC50 amounted to 26 nM in experiment [1] and 30 nM at human GLP-1R receptor.
In the case of `CCn1cncc1Cn1c(CN2C[C@@H]3[C@H](C2)[C@H]3c2cccc(OCc3ccc(Cl)cc3F)n2)nc2c(OC)cc(C(=O)O)cc21` [Example 14, 2-(((1R,5S,6r)-6-(6-((4-Chloro-2-fluorobenzyl)oxy)pyridin-2-yl)-3-azabicyclo[3.1.0]hexan-3-yl)methyl)-1-((1-ethyl-1H-imidazol-5-yl)methyl)-4-methoxy-1H-benzo[d]imidazole-6-carboxylic acid], the values for the EC50 (in experiment [1]; at human GLP-1R receptor) were 7.4 nM and 30 nM, respectively.
The like results for `COc1cc(C(=O)O)cc2c1nc(CN1C[C@@H]3[C@H](C1)[C@H]3c1nc(OCc3ccc(C#N)cc3F)ccc1F)n2C[C@@H]1CCO1` [Example 1, 2-(((1R,5S,6S)-6-(6-((4-Cyano-2-fluorobenzyl)oxy)-3-fluoropyridin-2-yl)-3-azabicyclo[3.1.0]hexan-3-yl)methyl)-4-methoxy-1-(((S)-oxetan-2-yl)methyl)-1H-benzo[d]imidazole-6-carboxylic acid] were, in that order, 5 nM and 7.7 nM.
As to `O=C(O)c1cc(F)c2nc(CN3C[C@@H]4[C@H](C3)[C@H]4c3cccc(OCc4ccc(Cl)cc4F)n3)n(C[C@@H]3CCO3)c2c1` [Example 15, 2-(((1R,5S,6S)-6-(6-((4-Chloro-2-fluorobenzyl)oxy)pyridin-2-yl)-3-azabicyclo[3.1.0]hexan-3-yl)methyl)-4-fluoro-1-(((S)-oxetan-2-yl)methyl)-1H-benzo[d]imidazole-6-carboxylic acid], the values for the EC50 (in experiment [1]; at human GLP-1R receptor) were 28 nM and 57 nM, respectively.
With `COc1cc(C(=O)O)cc2c1nc(CN1C[C@@H]3[C@H](C1)[C@H]3c1cccc(OCc3ccccc3OC(F)F)n1)n2C[C@@H]1CCO1` [Example 22, 2-(((1R,5S,6S)-6-(6-((2-(Difluoromethoxy)benzyl)oxy)pyridin-2-yl)-3-azabicyclo[3.1.0]hexan-3-yl)methyl)-4-methoxy-1-(((S)-oxetan-2-yl)methyl)-1H-benzo[d]imidazole-6-carboxylic acid], the values for the EC50 (in experiment [1]; at human GLP-1R receptor) were 34 nM and 49 nM, respectively.
For `O=C(O)c1ccc2nc(CN3C[C@@H]4[C@H](C3)[C@H]4c3nc(OCc4ccc(Cl)cc4F)ccc3F)n(C[C@@H]3CCO3)c2c1` [Example 16, 2-(((1R,5S,6S)-6-(6-((4-Chloro-2-fluorobenzyl)oxy)-3-fluoropyridin-2-yl)-3-azabicyclo[3.1.0]hexan-3-yl)methyl)-1-(((S)-oxetan-2-yl)methyl)-1H-benzo[d]imidazole-6-carboxylic acid], the EC50 in experiment [1] came to 24 nM; on human GLP-1R receptor, 47 nM.
